Experimental data published in EP4471048A1, “PEPTIDE INHIBITORS OF INTERLEUKIN-23 RECEPTOR” (Zealand Pharma A/S, priority 2023, dated 2024).
Each block holds one molecule with its values, some of them ahead of it. *1 amine or outer side, *2 acyl side, *3 side chain or, on linkers, in order; H or OH if unused. Where a SMILES comes first, the peptide text is derived from it. Bridges are numbered along the chain shown (N, C = ends). [ ]: non-standard residue; d: D form. X14 = O=C(CC[C@H](N[*:2])C(=O)[*:3])[*:1]; X8 = O=C(CC[C@@H](N[*:2])C(=O)[*:3])[*:1]; 2Nal = N[C@@H](Cc1ccc2ccccc2c1)C(=O)O; AEF = NCCOc1ccc(C[C@H](N)C(=O)O)cc1; X1 = O=C(Cc1ccc(CN[*:1])cc1)[*:2]; 3Pal = N[C@@H](Cc1cccnc1)C(=O)O; αMeL = CC(C)C[C@](C)(N)C(=O)O; CH2COCH2 = O=C(C[*:1])C[*:2]; NMeS = CN[C@@H](CO)C(=O)O; Dab = NCC[C@H](N)C(=O)O; βAla = NCCC(=O)O

Tests used:
[1] = Peptide stability in simulated intestinal fluid (SIF); format: in vitro ADME; settings: 37 °C, porcine pancreatin; for remaining at 1 h, 10 µM / remaining at 4 h, 10 µM: pig
Method: (§1) SGF was prepared by dissolving sodium chloride (0.2 g) in 50 mL of water. A volume of 0.7 mL of 10 M HCl was added to adjust the pH of the solution to 1.2 and the volume made up to 100 mL with water. […] SIF was prepared by dissolving monobasic potassium phosphate (0.68 g) in 50 mL of water and adjusting the pH to 6.8 with 1 M NaOH. The volume was subsequently made up to 100 mL with water. 200 mg porcine pancreatin (P1625, Sigma Aldrich) was gently dissolved into 20 mL preheated (37 °C) solution (10 g/L) immediately prior to the incubation.
(§2) The incubation was performed at 37 °C with gentle shaking. […] After the last timepoint, the sampling plate was mixed for 10 min on a shaking table and centrifuged 10 min at 2200 g. 70 µL resulting supernatant was diluted with 150 µL water, mixed and centrifugated before analysis by liquid chromatography high resolution mass spectrometry. […] Percent remaining at each timepoint was calculated relative to timepoint zero based on absolute peak areas.
Compounds with a SIF stability (after 4 h) above 70% are considered highly SIF stable.

[2] = Peptide stability in simulated gastric fluid (SGF); format: in vitro ADME; settings: 37 °C, porcine pepsin; for remaining at 1 h, 10 µM / remaining at 4 h, 10 µM: pig, simulated gastric fluid (SGF) with porcine pepsin (3.2 g/L), pH 1.2, 10 µM; for remaining at 1 h, 10 µM: read-out: SGF (% remaining 1 h); for remaining at 4 h, 10 µM: read-out: SGF (% remaining 4 h)
Method: as §1, §2
Compounds with a SGF stability (after 4 h) above 70% are considered highly SGF stable. […] Table 3-4: SGF data

[3] = target: T1, human IL-23R (Homo sapiens, UniProt Q5VWK5); assay: biochemical; settings: for Emax: read-out: % displacement (hIL-23R NIuc)
T1 sequence (Q5VWK5 22-629): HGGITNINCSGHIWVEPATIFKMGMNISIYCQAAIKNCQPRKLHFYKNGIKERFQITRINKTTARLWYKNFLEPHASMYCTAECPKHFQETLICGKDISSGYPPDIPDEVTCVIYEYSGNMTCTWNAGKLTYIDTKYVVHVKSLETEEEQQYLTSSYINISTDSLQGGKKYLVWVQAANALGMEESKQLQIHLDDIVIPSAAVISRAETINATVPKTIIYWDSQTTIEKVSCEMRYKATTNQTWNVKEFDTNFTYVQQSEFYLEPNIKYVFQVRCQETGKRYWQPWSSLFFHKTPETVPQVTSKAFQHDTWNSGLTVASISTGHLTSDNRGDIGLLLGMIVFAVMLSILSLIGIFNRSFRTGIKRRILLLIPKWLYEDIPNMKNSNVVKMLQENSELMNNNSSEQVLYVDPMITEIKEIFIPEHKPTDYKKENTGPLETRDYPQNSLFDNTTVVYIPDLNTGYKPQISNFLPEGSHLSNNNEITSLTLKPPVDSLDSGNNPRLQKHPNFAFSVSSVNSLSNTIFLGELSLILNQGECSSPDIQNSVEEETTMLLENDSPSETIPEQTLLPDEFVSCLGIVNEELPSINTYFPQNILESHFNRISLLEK
How it was run: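 BRET displacement of a TAMRA-labelled reference compound from N-terminal Nanoluc-IL-23R fusion protein in membranes from stably transfected HEK293 cells. Incubation 2 h at room temperature, then Nanoluc substrate was added and the TAMRA/Nanoluc ratio read. IC50 and maximal displacement came from 4-parameter logistic fits.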

[4] = pH 6.8, 4 h, read-out: SIF (% remaining 4 h)

SMILES: CC(C)C[C@@H]1NC(=O)[C@H](Cc2c[nH]c3ccccc23)NC(=O)[C@H](Cc2c[nH]c3ccccc23)NC(=O)[C@@H]2CSCC(=O)CSC[C@H](NC(=O)[C@H](CO)NC(=O)[C@@H](NC(=O)[C@@H](N)CC(=O)O)CSCC(=O)CSC[C@@H](C(=O)N[C@@H](CCCNC(=N)N)C(N)=O)NC1=O)C(=O)N[C@@H](Cc1c[nH]c3ccccc13)C(=O)N[C@@H](CCC(N)=O)C(=O)N2 (single isomer, unassigned) [I3 (isomer 3), H-DC(1a)SC(2a)WQC(2a)WWLC(1a)R-[NH2], reference compound]
SIF (% remaining 1 h) ([1]; 10 µM, pH 6.8, 1 h): 0%
SIF (% remaining 4 h) ([1]; 10 µM, pH 6.8, 4 h): 0%
SGF (% remaining 1 h) ([2]; 10 µM, pH 1.2, 1 h): 5%
SGF (% remaining 4 h) ([2]; 10 µM, pH 1.2, 4 h): 0%

SMILES: CC[C@H](C)[C@@H]1NC(=O)[C@@H]2CCCCNC(=O)CC[C@@H](C(=O)NCC(=O)N[C@H](Cc3cccnc3)C(N)=O)NC(=O)[C@](C)(C(C)C)NC(=O)[C@H](Cc3ccc4ccccc4c3)NC(=O)[C@H](Cc3ccc(C)cc3)NC(=O)[C@H](CCC(=O)N2)NC(=O)[C@H](CCC(N)=O)NC(=O)[C@H](Cc2c[nH]c3ccccc23)NC(=O)[C@H](C(C)C)NC1=O [Compound 19, K(1c)(6c)^†IVWQE(6c)[F(4-Me)][2-Nal][2-Me-Val]E(1c)G[{d}3-(3-Pyridyl)-Ala]-[NH2]]
IC50 [3]: 37 nM
Emax [3]: 103%
remaining at 1 h, 10 µM ([1]; pH 6.8, 1 h): 90%
remaining at 4 h, 10 µM [1, 4]: 27%
remaining at 1 h, 10 µM ([2]; pH 1.2, 1 h): 78%
remaining at 4 h, 10 µM ([2]; pH 1.2, 4 h): 6%

SMILES: CC[C@H](C)[C@@H]1NC(=O)[C@@H]2CCCCNC(=O)CC[C@@H](C(=O)NCCc3cccnc3)NC(=O)[C@](C)(C(C)C)NC(=O)[C@H](Cc3ccc4ccccc4c3)NC(=O)[C@H](Cc3ccc(OCCN)cc3)NC(=O)[C@H](CCC(=O)N2)NC(=O)[C@H](CCC(N)=O)NC(=O)[C@H](Cc2c[nH]c3ccccc23)NC(=O)[C@H](C(C)C)NC1=O [Compound 26, K(1c)(6c)^†IVWQE(6c)[Y(2-aminoethoxy)][2-Nal][2-Me-Val]E(1c)-[NH-2-(pyridin-3-yl)ethyl]]
% displacement (hIL-23R NIuc) [3]: 101%
IC50 [3]: 320 nM
remaining at 1 h, 10 µM ([1]; pH 6.8, 1 h): 97%
remaining at 4 h, 10 µM [1, 4]: 96%
remaining at 1 h, 10 µM ([2]; pH 1.2, 1 h): 95%
remaining at 4 h, 10 µM ([2]; pH 1.2, 4 h): 96%

SMILES: CNC(=O)[C@H](Cc1cccnc1)NC(=O)[C@H](CCN)NC(=O)[C@@H]1CCC(=O)NCCCC[C@@H]2NC(=O)CC[C@H](NC(=O)[C@H](CCC(N)=O)NC(=O)[C@H](Cc3c[nH]c4ccccc34)NC2=O)C(=O)N[C@@H](Cc2ccc(OCCN)cc2)C(=O)N[C@@H](Cc2ccc3ccccc3c2)C(=O)N[C@@](C)(CC(C)C)C(=O)N1 [Compound 43, K(1c)(6c)^†WQE(6c)[Y(2-aminoethoxy)][2-Nal][2-Me-Leu]E(1c)[Dab][3-(3-Pyridyl)-Ala]-[NHMe]] (KWQE[AEF][2Nal][αMeL]E[Dab][3Pal]-NHMe; lactam 1-8, N-4)
IC50 [3]: 80 nM
Emax [3]: 100%
remaining at 1 h, 10 µM ([1]; pH 6.8, 1 h): 91%
remaining at 4 h, 10 µM ([1]; SAR tables, % peptide remaining, pH 6.8, 4 h, read-out: SIF (% after 4 h)): 102%
remaining at 1 h, 10 µM ([2]; pH 1.2, 1 h): 110%
remaining at 4 h, 10 µM ([2]; pH 1.2, 4 h): 108%

SMILES: CNC(=O)[C@H](Cc1cccnc1)NC(=O)[C@H](CCN)NC(=O)[C@@H]1CCNC(=O)[C@@H]2CCC(=O)N[C@@H](Cc3c[nH]c4ccccc34)C(=O)N[C@@H](CCC(N)=O)C(=O)N[C@@H](CCC(=O)N2)C(=O)N[C@@H](Cc2ccc(OCCN)cc2)C(=O)N[C@@H](Cc2ccc3ccccc3c2)C(=O)N[C@@](C)(CC(C)C)C(=O)N1 [Compound 107, [iso-Glu](1c)^‡(6c)^†WQE(6c)[Y(2-aminoethoxy)][2-Nal][2-Me-Leu][Dab](1c)[Dab][3-(3-Pyridyl)-Ala]-[NHMe]] (WQE[AEF][2Nal][αMeL][Dab][Dab][3Pal]-NHMe; linker N-3-7 via X14)
Emax [3]: 97%

Now from value to molecule:

IC50 [3]: 11 nM
Emax [3]: 101%
SMILES: CNC(=O)[C@H](Cc1cccnc1)NC(=O)[C@H](CCN)NC(=O)[C@@H]1CCC(=O)N[C@H]2CCNC(=O)CC[C@H](NC(=O)[C@H](CCC(N)=O)NC(=O)[C@H](Cc3c[nH]c4ccccc34)NC(=O)CNC2=O)C(=O)N[C@@H](Cc2ccc(OCCN)cc2)C(=O)N[C@@H](Cc2ccc3ccccc3c2)C(=O)N[C@@](C)(CC(C)C)C(=O)N1 [Compound 105, [iso-Dab](1c)^†(6c)GWQE(6c)[Y(2-aminoethoxy)][2-Nal][2-Me-Leu]E(1c)[Dab][3-(3-Pyridyl)-Ala]-[NHMe]]

% displacement (hIL-23R NIuc) [3]: 99%
IC50 [3]: 2.5 nM
SMILES: CNC(=O)[C@H](Cc1cccnc1)NC(=O)[C@H](CCN)NC(=O)[C@@H]1CCCCNC(=O)[C@@H]2CCC(=O)N[C@@H](Cc3c[nH]c4ccccc34)C(=O)N[C@@H](CCC(N)=O)C(=O)N[C@@H](CCC(=O)N2)C(=O)N[C@@H](Cc2ccc(OCCN)cc2)C(=O)N[C@@H](Cc2ccc3ccccc3c2)C(=O)N[C@@](C)(CC(C)C)C(=O)N1 [Compound 106, [iso-Glu](1c)^‡(6c)^†WQE(6c)[Y(2-aminoethoxy)][2-Nal][2-Me-Leu]K(1c)[Dab][3-(3-Pyridyl)-Ala]-[NHMe]] (WQE[AEF][2Nal][αMeL]K[Dab][3Pal]-NHMe; linker N-3-7 via X14)

IC50 [3]: 16 nM
Emax [3]: 101%
SMILES: CNC(=O)[C@H](Cc1cccnc1)NC(=O)[C@H](CCN)NC(=O)[C@@H]1CCCCNC(=O)[C@H]2CCC(=O)N[C@@H](Cc3c[nH]c4ccccc34)C(=O)N[C@@H](CCC(N)=O)C(=O)N[C@@H](CCC(=O)N2)C(=O)N[C@@H](Cc2ccc(OCCN)cc2)C(=O)N[C@@H](Cc2ccc3ccccc3c2)C(=O)N[C@@](C)(CC(C)C)C(=O)N1 [Compound 108, [{d}iso-Glu](1c)^‡(6c)^†WQE(6c)[Y(2-aminoethoxy)][2-Nal][2-Me-Leu]K(1c)[Dab][3-(3-Pyridyl)-Ala]-[NHMe]] (WQE[AEF][2Nal][αMeL]K[Dab][3Pal]-NHMe; linker N-3-7 via X8)

IC50 [3]: 26 nM
Emax [3]: 96%
SMILES: CNC(=O)[C@H](Cc1cccnc1)NC(=O)[C@H](CCN)NC(=O)[C@@H]1CCNC(=O)[C@H]2CCC(=O)N[C@@H](Cc3c[nH]c4ccccc34)C(=O)N[C@@H](CCC(N)=O)C(=O)N[C@@H](CCC(=O)N2)C(=O)N[C@@H](Cc2ccc(OCCN)cc2)C(=O)N[C@@H](Cc2ccc3ccccc3c2)C(=O)N[C@@](C)(CC(C)C)C(=O)N1 [Compound 109, [{d}iso-Glu](1c)^‡(6c)^†WQE(6c)[Y(2-aminoethoxy)][2-Nal][2-Me-Leu][Dab](1c)[Dab][3-(3-Pyridyl)-Ala]-[NHMe]] (WQE[AEF][2Nal][αMeL][Dab][Dab][3Pal]-NHMe; linker N-3-7 via X8)

IC50 [3]: 0.079 nM
Emax [3]: 100%
SMILES: CNC(=O)[C@H](Cc1cccnc1)NC(=O)[C@H](CCN)NC(=O)[C@@H]1CCC(=O)NCCCC[C@@H]2NC(=O)CC[C@H](NC(=O)[C@H](CCC(N)=O)NC(=O)[C@H](Cc3c[nH]c4ccccc34)NC(=O)CCNC2=O)C(=O)N[C@@H](Cc2c[nH]c3ccccc23)C(=O)N[C@@H](Cc2ccc3ccccc3c2)C(=O)N[C@@](C)(CC(C)C)C(=O)N1 [Compound 110, K(1c)(6c)^†[3-Aminopropanoyl]WQE(6c)W[2-Nal][2-Me-Leu]E(1c)[Dab][3-(3-Pyridyl)-Ala]-[NHMe]] (K[βAla]WQEW[2Nal][αMeL]E[Dab][3Pal]-NHMe; lactam 1-9, N-5)

% displacement (hIL-23R NIuc) [3]: 102%
IC50 [3]: 3.5 nM
SMILES: CC(C)C[C@]1(C)NC(=O)[C@H](Cc2ccc3ccccc3c2)NC(=O)[C@H](Cc2ccc(OCCN)cc2)NC(=O)[C@@H]2CSCC(=O)CSC[C@H](NC(=O)[C@H](CO)N(C)C(=O)Cc3ccc(cc3)CNC(=O)CC[C@@H](C(=O)N[C@@H](CCN)C(N)=O)NC1=O)C(=O)N[C@@H](Cc1c[nH]c3ccccc13)C(=O)N[C@@H](CCC(N)=O)C(=O)N2 [Ref 141, [4-Aminomethyl-phenylacetyl](1c)*[N-Me-Ser]C(2a)WQC(2a)[Y(2-aminoethoxy)][2-Nal][2-Me-Leu]E(1c)[Dab]-[NH2], reference compound] ([X1][NMeS]CWQC[AEF][2Nal][αMeL]E[Dab]-NH2; linker 3-6 via CH2COCH2; lactam N-10)
